Like-named read-outs stand apart in the source and are kept apart here.
Legend:
[1] = test system: HCV replicon in Huh7 cells; assay: HCV replicon cell-based assay; parameters: species or system HCV strain 1B; conditions: Hepatitis C virus, Huh-7, 96 h, HCV replicon, 4 days, read-out: EC50 range
From the text: HCV Replicon Cell-based Assay
An HCV replicon whole cell system was established as described by Lohmann V, Komer F, Koch J, Herian U, Theilmann L, Bartenschlager R., Science 285(5424):110–3 (1999). This system enabled us to evaluate the effects of our HCV Protease compounds on HCV RNA replication. Briefly, using the HCV strain 1B sequence described in the Lohmann paper (Assession number:AJ238799), an HCV cDNA was generated encoding the 5′ internal ribosome entry site (IRES), the neomycin resistance gene, the EMCV (encephalomyocarditis viurs)-IRES and the HCV nonstructural proteins, NS3-NS5B, and 3′ non-translated region (NTR). In vitro transcripts of the cDNA were transfected into the human hepatoma cell line, Huh7. […] Resulting cell lines were characterized for positive and negative strand RNA production and protein production over time.
Huh7 cells, constitutively expressing the HCV replicon, were grown in Dulbecco's Modified Eagle Media (DMEM) containing 10% Fetal calf serum (FCS) and 1 mg/ml G418 (Gibco-BRL). Cells were seeded the night before (1.5×10^4 cells/well) in 96-well tissue-culture sterile plates. Compound and no compound controls were prepared in DMEM containing 4% FCS, 1:100 Penicillin/Streptomysin, 1:100 L-glutamine and 5% DMSO in the dilution plate (0.5% DMSO final concentration in the assay). Compound/DMSO mixes were added to the cells and incubated for 4 days at 37° C. After 4 days, plates were rinsed thoroughly with Phosphate-Buffered Saline (PBS) (3 times 150 μl). The cells were lysed with 25 μl of a lysis assay reagent containing the FRET peptide (RET S1, as described for the in vitro enzyme assay). The lysis assay reagent was made from 5× cell Luciferase cell culture lysis reagent (Promega #E153A) diluted to 1× with distilled water, NaCl added to 150 mM final, the FRET peptide diluted to 10 μM final from a 2 mM stock in 100% DMSO. The plate was then placed into the Cytofluor 4000 instrument which had been set to 340 nm excitation/490 emission, automatic mode for 21 cycles and the plate read in a kinetic mode. EC50 determinations were carried out as described for the IC50 determinations.
As a secondary assay, EC50 determinations from the replicon FRET assay were confirmed in a quantitative RNA assay. Cells were lyzed using the Rneasy kit (Qiagen). Purified total RNA was normalized using RiboGreen (Jones L J, Yue S T, Cheung C Y, Singer V L, Anal. Chem., 265(2):368–74 (1998)) and relative quantitation of HCV RNA expression assessed using the Taqman procedure (Kolykhalov A A, Mihalik K, Feinstone S M, Rice C M, Journal of Virology 74, 2046–2051 (2000)) and the Platinum Quantitative RT-PCR Thermoscript One-Step kit (Invitrogen cat # 11731-015). Briefly, RNA made to a volume of 5 μl (<1 ng) was added to a 20 μl Ready-Mix containing the following: 1.25× Thermoscript reaction mix (containing Magnesium Sulfate and 2-deoxynucleoside 5′-triphosphates (dNTPs)), 3 mM dNTPs, 200 nM forward primer (sequence: 5′-[…]-3′), 600 nM reverse primer (5′-[…]-3′), 100 nM probe (5′-6-FAM-[…]-BHQ-1-3′)(FAM: Fluorescein-aminohexyl amidite; BHQ: Black Hole Quencher), 1 μM Rbx reference dye (Invitrogen cat # 12223-012) and Thermoscript Plus Platinum Taq polymerase mixture. All primers were designed with ABI Prism 7700 software and obtained from Biosearch Technologies, Novato, Calif. Samples containing known concentrations of HCV RNA transcript were run as standards. Using the following cycling protocol (50° C., 30 min; 95° C., 5 min; 40 cycles of 95° C., 15 sec, 60° C., 1 min), HCV RNA expression was quantitated as described in the Perkin Elmer manual using the ABI Prism 7700 Sequence Detector.
The luciferase reporter assay was also used to confirm compound potency in the replicon. Utilization of a replicon luciferase reporter assay was first described by Krieger et al (Krieger N, Lohmann V, and Bartenschlager R, J. Virol. 75(10):4614–4624 (2001)). […]

[2] = target: T1, HCV NS3/4A protease complex (UniProt P27958, C1454S/C1711G, species not given); assay: Recombinant HCV NS3/4A protease complex FRET peptide assay (strain not stated); format: biochemical
T1 construct: fused on or other part: Three-lysine solubilising tail at the C-terminus of NS4A
From the text: Recombinant HCV NS3/4A Protease Complex FRET Peptide Assay
The purpose of this in vitro assay was to measure the inhibition of HCV NS3 protease complexes, derived from the BMS, H77C or J416S strains, as described below, by compounds of the present invention. This assay provides an indication of how effective compounds of the present invention would be in inhibiting HCV proteolytic activity.
Serum from an HCV-infected patient was obtained from Dr. T. Wright, San Francisco Hospital. An engineered full-length cDNA (compliment deoxyribonucleic acid) template of the HCV genome (BMS strain) was constructed from DNA fragments obtained by reverse transcription-PCR (RT-PCR) of serum RNA (ribonucleic acid) and using primers selected on the basis of homology between other genotype 1a strains. From the determination of the entire genome sequence, a genotype 1a was assigned to the HCV isolate according to the classification of Simmonds et al. (See P Simmonds, K A Rose, S Graham, S W Chan, F McOmish, B C Dow, E A Follett, P L Yap and H Marsden, J. Clin. Microbiol., 31(6), 1493–1503 (1993)). […] The infectious clones, H77C (1a genotype) and J4L6S (1b genotype) were obtained from R. Purcell (NIH) and the sequences are published in Genbank (AAB67036, see Yanagi, M., Purcell, R. H., Emerson, S. U. and Bukh, J. Proc. Natl. Acad. Sci. U.S.A. 94(16),8738–8743 (1997); AF054247, see Yanagi, M., St Claire, M., Shapiro, M., Emerson, S. U., Purcell, R. H. and Bukh, J, Virology 244 (1), 161–172. (1998)).
The BMS, H77C and J4L6S strains were used for production of recombinant NS3/4A protease complexes. DNA encoding the recombinant HCV NS3/4A protease complex (amino acids 1027 to 1711) for these strains were manipulated as described by P. Gallinari et al. (see Gallinari P, Paolini C, Brennan D, Nardi C, Steinkuhler C, De Francesco R. Biochemistry. 38(17):5620–32, (1999)). Briefly, a three-lysine solubilizing tail was added at the 3′-end of the NS4A coding region. The cysteine in the P1 position of the NS4A-NS4B cleavage site (amino acid 1711) was changed to a glycine to avoid the proteolytic cleavage of the lysine tag. Furthermore, a cysteine to serine mutation was introduced by PCR at amino acid position 1454 to prevent the autolytic cleavage in the NS3 helicase domain. The variant DNA fragment was cloned in the pET21b bacterial expression vector (Novagen) and the NS3/4A complex was expressed in Escherichia. coli strain BL21 (DE3) (Invitrogen) following the protocol described by P. Gallinari et al. (see Gallinari P, Brennan D, Nardi C, Brunetti M, Tomei L, Steinkuhler C, De Francesco R., J. Virol. 72(8):6758–69 (1998)) with modifications. Briefly, NS3/4A expression was induced with 0.5 mM Isopropyl β-D-1-thiogalactopyranoside (IPTG) for 22 hr at 20° C. A typical fermentation (10L) yielded approximately 80 g of wet cell paste. The cells were resuspended in lysis buffer (10 mL/g) consisting of 25 mM N-(2-Hydroxyethyl)Piperazine-N′-(2-Ethane Sulfonic acid) (HEPES), pH7.5, 20% glycerol, 500 mM Sodium Chloride (NaCl), 0.5% Triton-X100, 1 ug/ml lysozyme, 5 mM Magnesium Chloride (MgCl2), lug/ml Dnasel, 5 mM β-Mercaptoethanol (βME), Protease inhibitor—Ethylenediamine Tetraacetic acid (EDTA) free (Roche), homogenized and incubated for 20 mins at 4° C. The homogenate was sonicated and clarified by ultra-centrifugation at 235000 g for 1 hr at 4° C. Imidazole was added to the supernatant to a final concentration of 15 mM and the pH adjusted to 8.0. The crude protein extract was loaded on a Nickel-Nitrilotriacetic acid (Ni-NTA) column pre-equilibrated with buffer B (25 mM HEPES, pH 8.0, 20% glycerol, 500 mM NaCl, 0.5% Triton-X100, 15 mM imidazole, 5 mM βME). The sample was loaded at a flow rate of 1 mL/min. The column was washed with 15 column volumes of buffer C (same as buffer B except with 0.2% Triton-X100). The protein was eluted with 5 column volumes of buffer D (same as buffer C except with 200 mM Imidazole). […]

[3] = HCV NS3/4A protease enzyme assay, read-out: IC50 range

| SMILES | EC50 [1] [µM] | IC50 [2, 3] [µM] | IC50 ([2]; read-out: IC50 range, HCV NS3/4A protease enzyme assay) [µM] |
| --- | --- | --- | --- |
| C=CC1C[C@]1(NC(=O)[C@@H]1C[C@@H](OC(=O)Nc2cccc(C(=O)OC)c2)CN1C(=O)[C@@H](NC(=O)OC(C)(C)C)C(C)(C)C)C(=O)NS(=O)(=O)C1CC1 (stereo partly drawn) [Compound 40, BocNH-P3(t-BuGly)-P2(Hyp(O—CO(NH—(3-benzoic acid methyl ester))))-P1(1R,2S VinylAcca)—CONHSO2Cyclopropane] | 1 to 10 | < 0.1 | – |
| C=CC1C[C@]1(NC(=O)[C@@H]1C[C@@H](OC(=O)Nc2nc(Cl)c(Cl)nc2C(=O)OC)CN1C(=O)[C@@H](NC(=O)OC(C)(C)C)C(C)(C)C)C(=O)NS(=O)(=O)C1CC1 (stereo partly drawn) [Compound 35, BocNH-P3(t-BuGly)-P2(Hyp(O—CO(NH-3-(5,6-Dichloro-pyrazine-2-carboxylic acid methyl ester))))-P1(1R,2S VinylAcca)—CONHSO2Cyclopropane] | > 10 | < 0.1 | – |
| C=CC1C[C@]1(NC(=O)[C@@H]1C[C@@H](OC(=O)Nc2cc(C(=O)OCC)ccc2N2CCCCC2)CN1C(=O)[C@@H](NC(=O)OC(C)(C)C)C(C)(C)C)C(=O)NS(=O)(=O)C1CC1 (stereo partly drawn) [Compound 91, BocNH-P3(t-BuGly)-P2(Hyp(O—CO(NH—(5-carboxyethyl-2-piperidin-1-ylphenyl))))-P1(1R,2S VinylAcca)—CONHSO2Cyclopropane] | 0.1 to 1 | < 0.1 | – |
| C=CC1C[C@]1(NC(=O)[C@@H]1C[C@@H](OC(=O)Nc2ccccc2C(=O)O)CN1C(=O)[C@@H](NC(=O)OC(C)(C)C)C(C)(C)C)C(=O)NS(=O)(=O)C1CC1 (stereo partly drawn) [Compound 69, BocNH-P3(t-BuGly)-P2(Hyp(O—CO(NH—(2-benzoic acid))))-P1(1R,2S VinylAcca)—CONHSO2Cyclopropane] | > 10 | 0.1 to 1 | – |
| C=CC1C[C@]1(NC(=O)[C@@H]1C[C@@H](OC(=O)Nc2cc([N+](=O)[O-])ccc2C)CN1C(=O)[C@@H](NC(=O)OC(C)(C)C)C(C)(C)C)C(=O)NS(=O)(=O)C1CC1 (stereo partly drawn) [Compound 15, BocNH-P3(t-BuGly)-P2(Hyp(O—CO(NH—(2-methyl-5-nitro-phenyl))))-P1(1R,2S VinylAcca)—CONHSO2Cyclopropane] | 1 to 10 | < 0.1 | – |
| C=CC1C[C@]1(NC(=O)[C@@H]1C[C@@H](OC(=O)Nc2cc(Cl)nc(Cl)c2)CN1C(=O)[C@@H](NC(=O)OC(C)(C)C)C(C)(C)C)C(=O)NS(=O)(=O)C1CC1 (stereo partly drawn) [Compound 18, BocNH-P3(t-BuGly)-P2(Hyp(O—CO(NH—(2,6-Dichloro-pyridin-4-yl))))-P1(1R,2S VinylAcca)—CONHSO2Cyclopropane] | > 10 | 0.1 to 1 | – |
| C=CC1C[C@]1(NC(=O)[C@@H]1C[C@@H](OC(=O)Nc2ccc(F)c(F)c2F)CN1C(=O)[C@@H](NC(=O)OC(C)(C)C)C(C)(C)C)C(=O)NS(=O)(=O)C1CC1 (stereo partly drawn) [Compound 16, BocNH-P3(t-BuGly)-P2(Hyp(O—CO(NH—(2,3,4-trifluoro-phenyl))))-P1(1R,2S VinylAcca)—CONHSO2Cyclopropane] | 1 to 10 | 0.1 to 1 | – |
| C=CC1C[C@]1(NC(=O)[C@@H]1C[C@@H](OC(=O)Nc2ccc3c(c2)OCO3)CN1C(=O)[C@@H](NC(=O)OC(C)(C)C)C(C)(C)C)C(=O)NS(=O)(=O)C1CC1 (stereo partly drawn) [Compound 10, BocNH-P3(t-BuGly)-P2(Hyp(O—CO(NH-Benzo[1,3]dioxol-5-yl)))-P1(1R,2S VinylAcca)—CONHSO2Cyclopropane] | > 10 | 0.1 to 1 | – |
| C=CC1C[C@]1(NC(=O)[C@@H]1C[C@@H](OC(=O)N(CC)CC)CN1C(=O)[C@@H](NC(=O)OC(C)(C)C)C(C)(C)C)C(=O)NS(=O)(=O)C1CC1 (stereo partly drawn) [Compound 44, BocNH-P3(t-BuGly)-P2(Hyp(O—CO(N,N-diethyl)))-P1(1R,2S VinylAcca)—CONHSO2Cyclopropane] | 1 to 10 | – | < 0.1 |
| C=CC1C[C@]1(NC(=O)[C@@H]1C[C@@H](OC(=O)Nc2onc(C)c2C)CN1C(=O)[C@@H](NC(=O)OC(C)(C)C)C(C)(C)C)C(=O)NS(=O)(=O)C1CC1 (stereo partly drawn) [Compound 70, BocNH-P3(t-BuGly)-P2(Hyp(O—CO(NH—(3,4-Dimethyl-isoxazol-5-yl))))-P1(1R,2S VinylAcca)—CONHSO2Cyclopropane] | > 10 | 0.1 to 1 | – |

Reference: patent publication US7041698B2, “Hepatitis C virus inhibitors” (Bristol-Myers Squibb Company, priority 2002, dated 2006)
